Reference: publication PMC6274355, “Synthesis and Anti-HIV-1 Activity Evaluation for Novel 3a,6a-Dihydro-1H-pyrrolo[3,4-c]pyrazole-4,6-dione Derivatives” (Molecules, 2016)
Read-outs that look alike come from different tables or passages of the source.

Experiments:
Cytotoxicity assay (MTT) = type: cell-based; settings: human; C8166 cells, MTT, 72 h; means of two separate experiments; read-out: CC50 (50% cytotoxic concentration)
Description: The cytotoxicty assay was performed by 3-(4,5-dimethylthiazol-2-yl)-2,5-diphenyl tetrazoliumbromide (MTT) method. Briefly, 100 μL 4 × 10^4 C8166 cells were seeded each well with 100 μL of different concentrations of compounds in a 96-well plate. The plate was incubated 72 h at 37 °C, 5% CO2 incubator. MTT (20 μL, 5 mg/mL) was added to each well and the plate was incubated at 37 °C for 4 h. Supernatant (100 μL) was discarded and 20% SDS-50% DMF (100 μL) was added. The plates were read at 570/630 nm by a Bio-Tek Elx 800 reader (Bio-Tek Instruments, Inc., Winooski, VT, USA). The 50% cytotoxic concentration (CC50) was calculated.

HIV-1IIIB = assay: Syncytia inhibition assay (HIV-1IIIB infected C8166 cells); type: cell-based; settings: for TI (in vitro therapeutic index, CC50 value/EC50 value): CC50 in C8166 cells / EC50 syncytia inhibition; for EC50: HIV-1IIIB infected C8166 cells, 72 h, means of two separate experiments, read-out: EC50 (50% effective concentration, reduces syncytia formation by 50%)
Description: Target compounds 6–16 were evaluated for their inhibitory activity against HIV-1 replication in acutely infected C8166 cells in vitro according to the previously described method, and AZT was used as a positive control. The assay results of the target compounds are presented in Table 1 and Table 2, expressed as CC50, EC50 and therapeutic index (TI).
The syncytia inhibition assay was applied by counting syncytia which were formed by HIV-1IIIB infected C8166 cells. Briefly, HIV-1IIIB supernatant and C8166 cells were seeded in a 96-well plate with different concentration of compounds. The plate was incubated in a 37 °C, 5% CO2 incubator for 72 h. Syncytia were counting under an inverted microscope and 50% effective concentration (EC50) was calculated. Therapeutic index (TI) was calculated by the ratio of CC50/EC50.

[1] = Human immunodeficiency virus 1, C8166, 72 h

## O=C1C2C(c3cccc(F)c3O)=NN(c3ccc(F)cc3)C2C(=O)N1CCc1ccc(F)cc1 (stereo not shown) [9b, 1-(4-Fluorophenyl)-5-[2-(4-fluorophenyl)ethyl]-3-(3-fluoro-2-hydroxyphenyl)-3a,6a-dihydro-1H-pyrrolo[3,4-c]pyrazole-4,6-dione]
Cytotoxicity assay (MTT)
  CC50 at 72 h: 141 µM
HIV-1IIIB
  TI (in vitro therapeutic index, CC50 value/EC50 value): 24.58
HIV-1IIIB; [1]
  EC50: 5.74 µM

## CCOc1cccc(C2=NN(c3ccc(F)cc3)C3C(=O)N(CCc4ccc(F)cc4)C(=O)C23)c1O (stereo not shown) [10c, 1-(4-Fluorophenyl)-5-[2-(4-fluorophenyl)ethyl]-3-(3-ethoxy-2-hydroxyphenyl)-3a,6a-dihydro-1H-pyrrolo[3,4-c]pyrazole-4,6-dione]
Cytotoxicity assay (MTT)
  CC50 at 72 h: > 407 µM
HIV-1IIIB
  TI (in vitro therapeutic index, CC50 value/EC50 value): >3.51
HIV-1IIIB; [1]
  EC50: 116 µM

## COc1cccc(C2=NN(c3ccc(F)cc3)C3C(=O)N(CCc4cccc(F)c4)C(=O)C23)c1O (stereo not shown) [16b, 1-(4-Fluorophenyl)-5-[2-(3-fluorophenyl)ethyl]-3-(2-hydroxy-3-methoxyphenyl)-3a,6a-dihydro-1H-pyrrolo[3,4-c]pyrazole-4,6-dione]
Cytotoxicity assay (MTT)
  CC50 at 72 h: 143 µM
HIV-1IIIB
  TI (in vitro therapeutic index, CC50 value/EC50 value): 11.01
HIV-1IIIB; [1]
  EC50: 13 µM

## O=C1C2C(c3ccccc3)=NN(c3ccc(F)cc3)C2C(=O)N1CCc1ccc(F)cc1 (stereo not shown) [7b, 1-(4-Fluorophenyl)-5-[2-(4-fluorophenyl)ethyl]-3-phenyl-3a,6a-dihydro-1H-pyrrolo[3,4-c]pyrazole-4,6-dione]
Cytotoxicity assay (MTT)
  CC50 at 72 h: 148 µM
HIV-1IIIB
  TI (in vitro therapeutic index, CC50 value/EC50 value): 16.03
HIV-1IIIB; [1]
  EC50: 9.21 µM

## COc1c(O)cccc1C1=NN(c2ccc(F)cc2)C2C(=O)N(CCc3ccc(F)cc3)C(=O)C12 (stereo not shown) [7a, 1-(4-Fluorophenyl)-5-[2-(4-fluorophenyl)ethyl]-3-(3-hydroxy-2-methoxyphenyl)-3a,6a-dihydro-1H-pyrrolo[3,4-c]pyrazole-4,6-dione]
Cytotoxicity assay (MTT)
  CC50 at 72 h: 39.1 µM
HIV-1IIIB
  TI (in vitro therapeutic index, CC50 value/EC50 value): 7.29
HIV-1IIIB; [1]
  EC50: 5.37 µM

## COc1cccc(C2=NN(c3ccc(F)cc3)C3C(=O)N(CCc4ccccc4)C(=O)C23)c1O (stereo not shown) [16d, 1-(4-Fluorophenyl)-3-(2-hydroxy-3-methoxyphenyl)-5-phenethyl-3a,6a-dihydro-1H-pyrrolo[3,4-c]pyrazole-4,6-dione]
Cytotoxicity assay (MTT)
  CC50 at 72 h: > 436 µM
HIV-1IIIB
  TI (in vitro therapeutic index, CC50 value/EC50 value): >23.09
HIV-1IIIB; [1]
  EC50: 18.9 µM

## O=C1C2C(c3ccccn3)=NN(c3ccc(F)cc3)C2C(=O)N1CCc1ccc(F)cc1 (stereo not shown) [14b, 1-(4-Fluorophenyl)-5-[2-(4-fluorophenyl)ethyl]-3-pyridin-2-yl-3a,6a-dihydro-1H-pyrrolo[3,4-c]pyrazole-4,6-dione]
Cytotoxicity assay (MTT)
  CC50 at 72 h: 150 µM
HIV-1IIIB
  TI (in vitro therapeutic index, CC50 value/EC50 value): 5.73
HIV-1IIIB; [1]
  EC50: 26.2 µM

## COc1cccc(C2=NN(c3ccc(F)cc3)C3C(=O)N(CCc4ccc(F)cc4)C(=O)C23)c1OC (stereo not shown) [12a, 3-(2,3-Dimethoxyphenyl)-1-(4-fluorophenyl)-5-[2-(4-fluorophenyl)ethyl]-3a,6a-dihydro-1H-pyrrolo[3,4-c]pyrazole-4,6-dione]
Cytotoxicity assay (MTT)
  CC50 at 72 h: > 407 µM
HIV-1IIIB
  TI (in vitro therapeutic index, CC50 value/EC50 value): >36.56
HIV-1IIIB; [1]
  EC50: 11.1 µM

## COc1ccc(CCN2C(=O)C3C(c4cccc(OC)c4O)=NN(c4ccc(F)cc4)C3C2=O)cc1 (stereo not shown) [16e, 1-(4-Fluorophenyl)-3-(2-hydroxy-3-methoxyphenyl)-5-[2-(4-methoxyphenyl)ethyl]-3a,6a-dihydro-1H-pyrrolo[3,4-c]pyrazole-4,6-dione]
Cytotoxicity assay (MTT)
  CC50 at 72 h: 219 µM
HIV-1IIIB
  TI (in vitro therapeutic index, CC50 value/EC50 value): 2.52
HIV-1IIIB; [1]
  EC50: 87.2 µM

## COc1cccc(C2=NN(c3ccc(C)cc3)C3C(=O)N(CCc4ccc(F)cc4)C(=O)C23)c1O (stereo not shown) [15i, 5-[2-(4-Fluorophenyl)ethyl]-3-(2-hydroxy-3-methoxyphenyl)-1-(4-methylphenyl)-3a,6a-dihydro-1H-pyrrolo[3,4-c]pyrazole-4,6-dione]
Cytotoxicity assay (MTT)
  CC50 at 72 h: > 423 µM
HIV-1IIIB
  TI (in vitro therapeutic index, CC50 value/EC50 value): >103.09
  EC50: 4.1 µM
HIV-1IIIB; [1]
  EC50: < 5 µM

## Cc1cccc(C2=NN(c3ccc(F)cc3)C3C(=O)N(CCc4ccc(F)cc4)C(=O)C23)c1O (stereo not shown) [9f, 1-(4-Fluoro-phenyl)-5-[2-(4-fluoro-phenyl)-ethyl]-3-(2-hydroxy-3-methyl-phenyl)-3a,6a-dihydro-1H-pyrrolo[3,4-c]pyrazole-4,6-dione]
Cytotoxicity assay (MTT)
  CC50 at 72 h: 151 µM
HIV-1IIIB
  TI (in vitro therapeutic index, CC50 value/EC50 value): 30.73
HIV-1IIIB; [1]
  EC50: 4.9 µM

## COc1cccc(C2=NN(c3ccccc3)C3C(=O)N(CCc4ccc(F)cc4)C(=O)C23)c1O (stereo not shown) [15h, 5-[2-(4-Fluorophenyl)ethyl]-3-(2-hydroxy-3-methoxyphenyl)-1-phenyl-3a,6a-dihydro-1H-pyrrolo[3,4-c]pyrazole-4,6-dione]
Cytotoxicity assay (MTT)
  CC50 at 72 h: > 436 µM
HIV-1IIIB
  TI (in vitro therapeutic index, CC50 value/EC50 value): >15.22
HIV-1IIIB; [1]
  EC50: 28.6 µM

## O=C1C2C(c3cccc(Cl)c3O)=NN(c3ccc(F)cc3)C2C(=O)N1CCc1ccc(F)cc1 (stereo not shown) [9d, 3-(3-Chloro-2-hydroxyphenyl)-1-(4-fluorophenyl)-5-[2-(4-fluorophenyl)ethyl]-3a,6a-dihydro-1H-pyrrolo[3,4-c]pyrazole-4,6-dione]
Cytotoxicity assay (MTT)
  CC50 at 72 h: 332 µM
HIV-1IIIB
  TI (in vitro therapeutic index, CC50 value/EC50 value): 16.23
HIV-1IIIB; [1]
  EC50: 20.4 µM

## O=C1C2C(c3cc(F)ccc3O)=NN(c3ccc(F)cc3)C2C(=O)N1CCc1ccc(F)cc1 (stereo not shown) [9c, 1-(4-Fluorophenyl)-5-[2-(4-fluorophenyl)ethyl]-3-(5-fluoro-2-hydroxyphenyl)-3a,6a-dihydro-1H-pyrrolo[3,4-c]pyrazole-4,6-dione]
Cytotoxicity assay (MTT)
  CC50 at 72 h: 159 µM
HIV-1IIIB
  TI (in vitro therapeutic index, CC50 value/EC50 value): 37.70
HIV-1IIIB; [1]
  EC50: 4.21 µM

## COc1cccc(C2=NN(c3ccc(C(F)(F)F)cc3)C3C(=O)N(CCc4ccc(F)cc4)C(=O)C23)c1O (stereo not shown) [15e, 5-[2-(4-Fluorophenyl)-ethyl]-3-(2-hydroxy-3-methoxyphenyl)-1-(4-trifluoromethylphenyl)-3a,6a-dihydro-1H-pyrrolo[3,4-c]pyrazole-4,6-dione]
Cytotoxicity assay (MTT)
  CC50 at 72 h: > 379 µM
HIV-1IIIB
  TI (in vitro therapeutic index, CC50 value/EC50 value): >11.81
HIV-1IIIB; [1]
  EC50: 32.1 µM

## COc1cccc(C2=NN(c3ccc(F)cc3F)C3C(=O)N(CCc4ccc(F)cc4)C(=O)C23)c1O (stereo not shown) [15d, 1-(2,4-Difluorophenyl)-5-[2-(4-fluorophenyl)ethyl]-3-(2-hydroxy-3-methoxyphenyl)-3a,6a-dihydro-1H-pyrrolo[3,4-c]pyrazole-4,6-dione]
Cytotoxicity assay (MTT)
  CC50 at 72 h: > 404 µM
HIV-1IIIB
  TI (in vitro therapeutic index, CC50 value/EC50 value): >6.12
HIV-1IIIB; [1]
  EC50: 65.9 µM

## COc1cccc(C2=NN(c3ccc(Cl)cc3)C3C(=O)N(CCc4ccc(F)cc4)C(=O)C23)c1O (stereo not shown) [15c, 1-(4-Chlorophenyl)-5-[2-(4-fluorophenyl)ethyl]-3-(2-hydroxy-3-methoxyphenyl)-3a,6a-dihydro-1H-pyrrolo[3,4-c]pyrazole-4,6-dione]
Cytotoxicity assay (MTT)
  CC50 at 72 h: 166 µM
HIV-1IIIB
  TI (in vitro therapeutic index, CC50 value/EC50 value): 6.52
HIV-1IIIB; [1]
  EC50: 25.5 µM

## O=C1C2C(c3nccs3)=NN(c3ccc(F)cc3)C2C(=O)N1CCc1ccc(F)cc1 (stereo not shown) [14a, 1-(4-Fluorophenyl)-5-[2-(4-fluorophenyl)ethyl]-3-thiazol-2-yl-3a,6a-dihydro-1H-pyrrolo[3,4-c]pyrazole-4,6-dione]
Cytotoxicity assay (MTT)
  CC50 at 72 h: 158 µM
HIV-1IIIB
  TI (in vitro therapeutic index, CC50 value/EC50 value): 4.46
HIV-1IIIB; [1]
  EC50: 35.6 µM

## COc1cccc(C2=NN(c3ccc(F)cc3)C3C(=O)N(CCc4ccccc4F)C(=O)C23)c1O (stereo not shown) [16a, 1-(4-Fluorophenyl)-5-[2-(2-fluorophenyl)ethyl]-3-(2-hydroxy-3-methoxyphenyl)-3a,6a-dihydro-1H-pyrrolo[3,4-c]pyrazole-4,6-dione]
Cytotoxicity assay (MTT)
  CC50 at 72 h: 19.6 µM
HIV-1IIIB
  TI (in vitro therapeutic index, CC50 value/EC50 value): 7.78
HIV-1IIIB; [1]
  EC50: 2.52 µM

## O=C1C2C(c3ccc(O)cc3O)=NN(c3ccc(F)cc3)C2C(=O)N1CCc1ccc(F)cc1 (stereo not shown) [9a, 3-(2,4-Dihydroxyphenyl)-1-(4-fluorophenyl)-5-[2-(4-fluorophenyl)ethyl]-3a,6a-dihydro-1H-pyrrolo[3,4-c]pyrazole-4,6-dione]
Cytotoxicity assay (MTT)
  CC50 at 72 h: 173 µM
HIV-1IIIB
  TI (in vitro therapeutic index, CC50 value/EC50 value): 4.91
HIV-1IIIB; [1]
  EC50: 35.3 µM

## O=C1C2C(c3ccccc3O)=NN(c3ccc(F)cc3)C2C(=O)N1CCc1ccc(F)cc1 (stereo not shown) [compound 8, 1-(4-Fluorophenyl)-5-[2-(4-fluorophenyl)ethyl]-3-(2-hydroxyphenyl)-3a,6a-dihydro-1H-pyrrolo[3,4-c]pyrazole-4,6-dione]
Cytotoxicity assay (MTT)
  CC50 at 72 h: > 447 µM
HIV-1IIIB
  TI (in vitro therapeutic index, CC50 value/EC50 value): >44.25
HIV-1IIIB; [1]
  EC50: 10.1 µM

## COc1cccc(C2=NN(c3ccc(F)cc3)C3C(=O)N(CCc4ccc(Cl)cc4)C(=O)C23)c1O (stereo not shown) [16c, 5-[2-(4-Chlorophenyl)-ethyl]-1-(4-fluorophenyl)-3-(2-hydroxy-3-methoxyphenyl)-3a,6a-dihydro-1H-pyrrolo[3,4-c]pyrazole-4,6-dione]
Cytotoxicity assay (MTT)
  CC50 at 72 h: 70.1 µM
HIV-1IIIB
  TI (in vitro therapeutic index, CC50 value/EC50 value): 6.73
HIV-1IIIB; [1]
  EC50: 10.4 µM
